From BigSolDB 2.1

CN1c2ccccc2C(=O)N2CCc3c([nH]c4ccccc34)[C@H]21
solubility (mole fraction)
Details	283.2 K	288.2 K	293.2 K	298.2 K	303.2 K	313.2 K	323.2 K
in acetone	0.000216	–	0.000303	–	0.00038	0.000513	0.000676
in chloroform	0.000683	–	0.000876	–	0.00105	0.00135	0.00183
in cyclohexane	1.68e-06	–	2.81e-06	–	4.49e-06	6.47e-06	9.36e-06
in dichloromethane	0.000334	0.00037	0.000417	0.00048	0.000571	–	–
in diethyl ether	4.06e-05	5.16e-05	6.93e-05	7.51e-05	9.09e-05	–	–
in ethanol	6.12e-05	–	8.02e-05	–	0.000116	0.000173	0.000257
in ethyl acetate	0.000135	–	0.000165	–	0.000255	0.000321	0.000412
in isopropanol	7e-05	–	8.69e-05	–	0.000119	0.000181	0.000287
in methanol	3.52e-05	–	5.19e-05	–	7.24e-05	0.00011	0.000176
in n-butanol	0.000112	–	0.000139	–	0.000216	0.000317	0.000458
in n-hexane	1.05e-06	–	1.66e-06	–	2.61e-06	4.37e-06	5.84e-06
in n-pentane	1.59e-06	2.2e-06	2.92e-06	3.79e-06	4.7e-06	–	–
